Consider 18 compounds from PubChem BioAssay (NCI).

The structures appear in SMILES notation.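 Dose response: 5 concentrations. Exposure: 48 h. Format: 96-well plates. Endpoint: linear interpolation; highest concentration if not reached. The concentration for 50% growth inhibition is given as GI50. At the TGI there is no net growth.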

Some test systems named below: MDA-MB-435; SF-539 CNS; SNB-75 CNS; SK-OV-3 ovarian; TK-10 renal; COLO 205 colon; NCI-H460 lung; ACHN renal; OVCAR-8 ovarian; SN12C renal.
Holding throughout (test): NCI-60 cell line screen, 48 h

As for `CC1(C)CCC2(C(=O)OC3OC(CO)C(O)C(O)C3O)CCC3(CO)C(=CCC4C5(C)CC(O)C(O)C(C)(C(=O)OC6OC(CO)C(O)C(O)C6O)C5CCC43C)C2C1` (stereo not given), the TGI in the assay on MDA-MB-435, with SF-539 CNS, in the assay on SNB-75 CNS, in the assay with SK-OV-3 ovarian, in the assay on TK-10 renal and with COLO 205 colon was over 100 µM in each case. Further, the TGI with NCI-H460 lung, in the assay on ACHN renal, in the assay with OVCAR-8 ovarian and in the assay on SN12C renal was over 100 µM throughout.
On to `O=C1C=C(N2CCN(c3ccccn3)CC2)C(=O)c2c(O)ccc(O)c21`, for which the TGI in the assay with MDA-MB-435 was 1.75 µM; with SF-539 CNS it was 22.3 µM; with SNB-75 CNS it was 23.7 µM; in the assay with SK-OV-3 ovarian it was 51.3 µM; with TK-10 renal, 45.7 µM; in the assay with COLO 205 colon, 16 µM. For the same compound, the TGI is 38.1 µM with NCI-H460 lung, over 56.2 µM with ACHN renal, over 90.8 µM in the assay with OVCAR-8 ovarian and 45.2 µM in the assay with SN12C renal.
As for `CC1=C2C(=O)c3ccccc3C(=O)[C@H]2C[C@@H](N2CCCCCC2=O)O1`, the TGI is 29.7 µM with MDA-MB-435; 33.7 µM with SF-539 CNS; 45.1 µM with SNB-75 CNS; over 100 µM with SK-OV-3 ovarian; 37.7 µM in the assay on TK-10 renal; 32.2 µM in the assay with COLO 205 colon. Moreover, the TGI was 33.3 µM in the assay on NCI-H460 lung, 51.7 µM in the assay on ACHN renal, 40.3 µM in the assay on OVCAR-8 ovarian and 34.5 µM in the assay with SN12C renal.
For the compound `O=c1oc2ccc(Cl)cc2cc1-c1cn2ccsc2n1`, the TGI was over 100 µM in the assay with MDA-MB-435; over 100 µM in the assay on SF-539 CNS; over 100 µM with SNB-75 CNS; over 100 µM in the assay on SK-OV-3 ovarian; over 100 µM in the assay on TK-10 renal; 93.6 µM with COLO 205 colon. The TGI in the assay with NCI-H460 lung was over 100 µM; in the assay with ACHN renal, over 100 µM; in the assay on OVCAR-8 ovarian it was 96.8 µM; in the assay with SN12C renal it was over 100 µM.
For the compound `Oc1[nH]c2ccccc2c1/C=c1/cc2c(c(-c3ccc(C(F)(F)F)cc3)n1)=Nc1ccccc1-2`, the GI50 is 0.403 µM with MDA-MB-435; 16.3 µM with SF-539 CNS; 1.45 µM with SNB-75 CNS; 13.8 µM in the assay on SK-OV-3 ovarian; 5.54 µM in the assay on TK-10 renal; 1.95 µM with COLO 205 colon. In addition, the GI50 was 2.56 µM with NCI-H460 lung, 2.72 µM in the assay on ACHN renal, 4.99 µM in the assay on OVCAR-8 ovarian and 27.9 µM in the assay with SN12C renal. The TGI in the assay with MDA-MB-435 came out at 10 µM; in the assay with SF-539 CNS, 44.6 µM; with SNB-75 CNS, 20.7 µM; with SK-OV-3 ovarian, 56.6 µM; in the assay on TK-10 renal, 22.9 µM; in the assay on COLO 205 colon, 5.13 µM. Further, the TGI in the assay with NCI-H460 lung is 10.5 µM; in the assay on ACHN renal it was 11.5 µM; in the assay with OVCAR-8 ovarian it was 28.1 µM; with SN12C renal, over 100 µM.
Consider `CCCCCCCCCCCCCCCCOCC(Cl)COP(=O)(O)OP(=O)(O)OCC1OC(n2cnc3c(N)ncnc32)C(O)C1O` (stereo not given), for which the TGI with MDA-MB-435 was over 100 µM; with SF-539 CNS, over 100 µM; in the assay with SNB-75 CNS it was 89.7 µM; in the assay on SK-OV-3 ovarian, over 100 µM; in the assay with TK-10 renal, over 100 µM; with COLO 205 colon, over 100 µM. Besides, the TGI with NCI-H460 lung, in the assay on ACHN renal, in the assay on OVCAR-8 ovarian and in the assay with SN12C renal was over 100 µM each time.
Take `CCN(CC)CCN(C)CCc1ccc(Br)cc1`: the TGI was over 100 µM in the assay with MDA-MB-435; over 100 µM with SF-539 CNS; over 100 µM in the assay with SNB-75 CNS; over 100 µM in the assay on SK-OV-3 ovarian; over 100 µM with TK-10 renal; 39.5 µM in the assay with COLO 205 colon. In addition, the TGI in the assay on NCI-H460 lung, with ACHN renal, with OVCAR-8 ovarian and in the assay on SN12C renal was over 100 µM throughout.
Consider `Cc1ccc(/C=C2\CN(C)CC3C2=NC(=S)NC3c2ccc(C)cc2)cc1` (stereo not given), for which the TGI with MDA-MB-435 is 45.1 µM; in the assay on SF-539 CNS, over 100 µM; in the assay with SNB-75 CNS, over 100 µM; with SK-OV-3 ovarian, over 100 µM; in the assay on TK-10 renal it was over 100 µM; in the assay on COLO 205 colon it was over 71.7 µM. Besides, the TGI in the assay with NCI-H460 lung, in the assay on ACHN renal, in the assay with OVCAR-8 ovarian and with SN12C renal was over 100 µM throughout.
For the compound `COc1cc2cc(C(=O)N3CC(CCl)c4c3cc([N+](C)(C)Cc3ccc([N+](=O)[O-])n3C)c3ccccc43)[nH]c2c(OC)c1OC` (stereo not given), the TGI in the assay on MDA-MB-435 was 60.7 µM; in the assay with SF-539 CNS, 14.3 µM; in the assay with SNB-75 CNS it was 7.18 µM; in the assay on SK-OV-3 ovarian it was over 100 µM; in the assay on TK-10 renal it was 14.3 µM; in the assay with COLO 205 colon it was 7.36 µM. The TGI in the assay on NCI-H460 lung was 5.41 µM; in the assay on ACHN renal, over 100 µM; in the assay with OVCAR-8 ovarian, 8.78 µM; with SN12C renal, over 62.4 µM.
Turning to `CO[P@]1(=O)O[C@@H](c2ccccc2)[C@H](O)[C@@]1(O)c1ccccc1`, the TGI in the assay with MDA-MB-435, in the assay on SF-539 CNS, in the assay with SNB-75 CNS, with SK-OV-3 ovarian, in the assay on TK-10 renal and with COLO 205 colon was over 100 µM each time. Also, the TGI with NCI-H460 lung, in the assay with ACHN renal, in the assay on OVCAR-8 ovarian and in the assay on SN12C renal was over 100 µM each time.
On to `N#CCCC1(CCC#N)CCCCCCC(CCC#N)(CCC#N)C(O)C1O` (stereo not given), for which the TGI with MDA-MB-435, with SF-539 CNS, in the assay on SNB-75 CNS, in the assay on SK-OV-3 ovarian, with TK-10 renal and in the assay with COLO 205 colon was over 100 µM in each case. For the same compound, the TGI in the assay with NCI-H460 lung, in the assay with ACHN renal, in the assay with OVCAR-8 ovarian and in the assay with SN12C renal was over 100 µM throughout.
Consider `NC(=S)N/N=C\CC(O)(C(F)(F)F)C(F)(F)F`, for which the TGI in the assay on MDA-MB-435, with SF-539 CNS, in the assay with SNB-75 CNS, with SK-OV-3 ovarian, with TK-10 renal and with COLO 205 colon was over 10 µM throughout. In addition, the TGI with NCI-H460 lung, in the assay with ACHN renal, in the assay on OVCAR-8 ovarian and in the assay with SN12C renal was over 10 µM each time.
For the compound `CCCNC(=O)CCC(C)[C@H]1CCC2C3C(C[C@H](OC(C)=O)[C@@]21C)[C@@]1(C)CCC2(C[C@H]1C[C@H]3OC(C)=O)OOC1(CCCCC1)OO2` (stereo not given in full), the TGI was 9.92 µM with MDA-MB-435; 16 µM in the assay with SF-539 CNS; 6.86 µM with SNB-75 CNS; over 100 µM with SK-OV-3 ovarian; 4.32 µM in the assay with TK-10 renal; 3.64 µM with COLO 205 colon. Besides, the TGI in the assay with NCI-H460 lung came to 6.83 µM; with ACHN renal, 2.62 µM; in the assay on OVCAR-8 ovarian, 4.3 µM; in the assay on SN12C renal, 16 µM.
Turning to `Cc1c2cccc-2ccc2c1[nH]c1ccccc12`, the TGI is 4.68 µM with MDA-MB-435; 3.42 µM with SF-539 CNS; 4.33 µM with SNB-75 CNS; 11 µM with SK-OV-3 ovarian; 4.92 µM with TK-10 renal; 3.68 µM in the assay on COLO 205 colon. The TGI in the assay with NCI-H460 lung stood at 3.57 µM; in the assay on ACHN renal, 3.2 µM; in the assay with OVCAR-8 ovarian, 7.07 µM; in the assay with SN12C renal it was 7.01 µM.
As for `O=C1OI(C#Cc2ccccc2)c2ccccc21`, the TGI with MDA-MB-435 amounted to 14.1 µM; with SF-539 CNS, 5.58 µM; in the assay on SNB-75 CNS, 10.3 µM; with SK-OV-3 ovarian, 26.1 µM; in the assay with TK-10 renal, 13.5 µM; with COLO 205 colon, 9.11 µM. Further, the TGI came to 13.4 µM in the assay on NCI-H460 lung, 5.42 µM in the assay with ACHN renal, 36.4 µM in the assay on OVCAR-8 ovarian and 22.6 µM in the assay on SN12C renal.
For `CC(=O)c1ccc(NC(=O)CSc2nc(C)nc3c2sc(=S)n3-c2ccccc2)cc1`, the TGI in the assay on MDA-MB-435, in the assay on SF-539 CNS, in the assay with SNB-75 CNS, with SK-OV-3 ovarian, with TK-10 renal and in the assay with COLO 205 colon was over 3.16 µM throughout. Further, the TGI with NCI-H460 lung was over 3.16 µM; with ACHN renal, over 3.16 µM; in the assay on OVCAR-8 ovarian, over 10 µM; in the assay with SN12C renal, over 3.16 µM.
With `O=C(CSc1nc2ccc(I)cc2c(=O)n1Cc1ccccc1)NN1C(=O)CCC1=O`, the TGI in the assay with MDA-MB-435, in the assay with SF-539 CNS, with SNB-75 CNS, in the assay with SK-OV-3 ovarian, in the assay with TK-10 renal and in the assay with COLO 205 colon was over 100 µM throughout. Besides, the TGI is over 100 µM in the assay on NCI-H460 lung, 34.6 µM in the assay with ACHN renal, over 100 µM with OVCAR-8 ovarian and over 100 µM in the assay with SN12C renal.
In the case of `COC1=CC(=O)C2=C(C1=O)[C@H]1CC[C@]3(C)[C@@H](OC(C)=O)CC[C@H]3[C@@H]1CC2`, the TGI was 38.2 µM in the assay with MDA-MB-435; over 100 µM with SF-539 CNS; over 100 µM in the assay on SNB-75 CNS; over 100 µM in the assay on SK-OV-3 ovarian; over 100 µM with TK-10 renal; over 100 µM in the assay on COLO 205 colon. Further, the TGI in the assay with NCI-H460 lung was over 100 µM; in the assay with ACHN renal, over 100 µM; with OVCAR-8 ovarian it was 53.9 µM; in the assay on SN12C renal it was over 100 µM.
